Structures are written as SMILES. “And” between values parts separate entries of the source, which are not always exact repeats. Identical values can stand only once.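 These data come from cells grown in 96-well plates and exposed to compound for 48 hours at five concentrations. At the GI50, growth is halved. TGI: total growth inhibition.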

From PubChem BioAssay (NCI) come the findings set out here.

Some test systems named below: HT29 colon; TK-10 renal; OVCAR-4 ovarian; SN12C renal; A498 renal; RXF 393 renal; UACC-62 melanoma; SK-OV-3 ovarian; HOP-62 NSCLC.
What all share (experiment): inhibition of tumour cell growth, NCI panel, 48 h

As to `CCCCCCCCSC(=O)NCCCC`, the TGI in the assay with HT29 colon was 66.6 µM; with TK-10 renal it was over 100 µM; in the assay with OVCAR-4 ovarian it was over 100 µM; with SN12C renal, over 100 µM; in the assay with A498 renal it was over 100 µM; in the assay with RXF 393 renal, 69.3 µM. The TGI with UACC-62 melanoma and in the assay on SK-OV-3 ovarian was over 100 µM in each case.

Turning to `Clc1ccc(-c2cc(-c3ccccc3)nc(N3CCN(CCCNc4ccnc5cc(Cl)ccc45)CC3)n2)cc1`, the GI50 is 0.464 µM in the assay on HT29 colon; 1.75 µM with TK-10 renal; 1.16 µM with OVCAR-4 ovarian; 1.42 µM in the assay on SN12C renal; 1.48 µM in the assay on A498 renal; 1.25 µM in the assay on RXF 393 renal. The GI50 in the assay with UACC-62 melanoma was 1.79 µM; in the assay with SK-OV-3 ovarian, 1.74 µM; with HOP-62 NSCLC it was 1.2 µM. Also, the TGI worked out at 1.76 µM with HT29 colon; 3.26 µM in the assay on TK-10 renal; 2.61 µM in the assay on OVCAR-4 ovarian; 2.84 µM in the assay on SN12C renal; 2.81 µM in the assay with A498 renal; 2.58 µM in the assay with RXF 393 renal. In addition, the TGI in the assay on UACC-62 melanoma turned out to be 3.25 µM; in the assay on SK-OV-3 ovarian it was 3.17 µM; in the assay on HOP-62 NSCLC, 2.78 µM.

For `O=C1c2c(O)cccc2C(C(=O)CCCCCC(=O)C2c3cccc(O)c3C(=O)c3c(O)cccc32)c2cccc(O)c21`, the GI50 in the assay with HT29 colon was 11.8 µM; in the assay on TK-10 renal it was 8.83 µM; in the assay with OVCAR-4 ovarian it was 5.17 µM; in the assay on SN12C renal, 10.6 µM; in the assay with A498 renal it was 21 µM; in the assay with UACC-62 melanoma it was 2.22 µM. The GI50 with SK-OV-3 ovarian is 6.3 µM; in the assay with HOP-62 NSCLC it was 5.45 µM. Further, the TGI with HT29 colon was 11.4 µM and 23.1 µM; with TK-10 renal, 7.61 µM and 18.7 µM; in the assay with OVCAR-4 ovarian, 4.61 µM and 11 µM; in the assay with SN12C renal it was 9.71 µM and 30 µM; in the assay on A498 renal, 10.9 µM and 37.6 µM; in the assay with UACC-62 melanoma, 5.26 µM and 9.46 µM. The TGI in the assay with SK-OV-3 ovarian was 4.15 µM and 13.8 µM; in the assay on HOP-62 NSCLC, 6.96 µM and 16.9 µM.

Consider `NC(Cc1ccccc1)C(=O)OCN1C(=O)C2C3C=CC(C2C1=O)C1C2C(=O)N(COC(=O)C(N)Cc4ccccc4)C(=O)C2C31` (stereo unspecified), for which the TGI is over 100 µM with HT29 colon; over 100 µM with TK-10 renal; 34 µM and 44.5 µM in the assay with OVCAR-4 ovarian; 52.7 µM and 43.9 µM in the assay with SN12C renal; over 100 µM with A498 renal; 41.7 µM and 39.3 µM with RXF 393 renal. The TGI with UACC-62 melanoma is 41.4 µM and 37.7 µM; in the assay with SK-OV-3 ovarian, > 100 µM and 78.9 µM; in the assay on HOP-62 NSCLC, over 100 µM. Besides, the GI50 with A498 renal was > 100 µM and 46 µM.

As for `COc1ccc(C(c2ccccc2C(=O)O)c2ccc(OC)c3ccccc23)c2ccccc12`, the TGI in the assay with HT29 colon came out at 27.5 µM; in the assay on TK-10 renal, 45.3 µM; in the assay with OVCAR-4 ovarian, 25.6 µM; in the assay with SN12C renal it was 29.7 µM; with A498 renal it was 39 µM; in the assay on UACC-62 melanoma it was 16.4 µM. For the same compound, the figures for the TGI in the assay on SK-OV-3 ovarian and in the assay with HOP-62 NSCLC were 45.1 µM and 30.2 µM, respectively.

Regarding `CC1=C(C(=O)Nc2cccc(Cl)c2)C(c2ccccc2O)C(C(=O)Nc2cccc(Cl)c2)=C(C)N1`, the TGI turned out to be 35.7 µM with HT29 colon; 39.5 µM in the assay with TK-10 renal; 35.6 µM in the assay on OVCAR-4 ovarian; 39 µM in the assay with SN12C renal; 38 µM in the assay on A498 renal; 31.9 µM in the assay with RXF 393 renal. The TGI in the assay on SK-OV-3 ovarian was determined as 54.4 µM; in the assay with HOP-62 NSCLC it was 39.8 µM.

As to `CC12Nc3ccccc3C1=C(c1ccccc1)CC1C(=O)OC(=O)C12` (stereo unspecified), the TGI in the assay with HT29 colon, in the assay on TK-10 renal, in the assay on OVCAR-4 ovarian, in the assay with SN12C renal, in the assay with RXF 393 renal and in the assay on UACC-62 melanoma was over 100 µM throughout. For the same compound, the TGI with HOP-62 NSCLC was over 100 µM.

For the compound `CC(=O)OCCOCn1c2ccccc2c2c3c(c4c5ccccc5n(COCCOC(C)=O)c4c21)C(=O)N(Cc1ccccc1)C3=O`, the TGI in the assay with HT29 colon, with TK-10 renal, in the assay on OVCAR-4 ovarian, with SN12C renal, with A498 renal and with RXF 393 renal was over 100 µM each time. Further, the TGI with UACC-62 melanoma, with SK-OV-3 ovarian and in the assay with HOP-62 NSCLC was over 100 µM throughout.

As to `O/N=C1/CCC/C1=C\c1ccccc1`, the TGI in the assay on TK-10 renal, in the assay with OVCAR-4 ovarian, in the assay with SN12C renal, with RXF 393 renal, with UACC-62 melanoma and in the assay on SK-OV-3 ovarian was over 100 µM in each case. In addition, the TGI in the assay with HOP-62 NSCLC is over 100 µM.

For the compound `O=C1OC(CC(=O)c2ccc(F)cc2)C(Cl)=C1Cl` (stereo unspecified), the TGI came to 32.1 µM in the assay with HT29 colon; 91.1 µM in the assay on TK-10 renal; 43.5 µM in the assay with OVCAR-4 ovarian; 35.3 µM in the assay on SN12C renal; 37.5 µM in the assay on RXF 393 renal; 32.2 µM with UACC-62 melanoma. The TGI with SK-OV-3 ovarian is over 100 µM; in the assay with HOP-62 NSCLC, 72.5 µM.

Turning to `CCCCC(C(=O)C(=O)Nc1ccc(C)cc1C)C(=O)C(C)C` (stereo unspecified), the TGI in the assay with HT29 colon, in the assay with TK-10 renal, with OVCAR-4 ovarian, in the assay on SN12C renal, in the assay with A498 renal and with RXF 393 renal was over 100 µM in each case. Besides, the TGI in the assay with UACC-62 melanoma and in the assay on HOP-62 NSCLC was over 100 µM throughout.

`C/C(NNC(=O)c1ccccc1O)=C1\C=Nc2ccccc2S1`: the TGI is over 100 µM in the assay with HT29 colon; over 100 µM with TK-10 renal; over 100 µM in the assay with OVCAR-4 ovarian; 55.6 µM in the assay on SN12C renal; over 100 µM in the assay on A498 renal; 9.61 µM in the assay on UACC-62 melanoma. The TGI in the assay with SK-OV-3 ovarian and with HOP-62 NSCLC was over 100 µM each time.

Turning to `CC(C)N(C(=O)C12C3C4C1C1C2C3C41C(=O)C(C)(C)C)C(C)C` (stereo unspecified), the TGI in the assay on HT29 colon, in the assay with TK-10 renal, with OVCAR-4 ovarian, with SN12C renal, with A498 renal and in the assay on UACC-62 melanoma was over 100 µM each time. Also, the TGI in the assay with SK-OV-3 ovarian and with HOP-62 NSCLC was over 100 µM each time.

Take `C/C(=N\Nc1ccccc1)c1sc(-c2nc(C)c(/C(C)=N/Nc3ccccc3)s2)nc1C`: the TGI in the assay with HT29 colon was 26.2 µM; with TK-10 renal, over 100 µM; in the assay with OVCAR-4 ovarian, over 100 µM; in the assay on SN12C renal it was over 100 µM; in the assay with A498 renal, over 100 µM; with RXF 393 renal, over 87.9 µM. Besides, the TGI with UACC-62 melanoma was 13.6 µM; in the assay on SK-OV-3 ovarian it was over 100 µM.
